From patent US5792742A, “Fibrin-binding peptide fragments of fibronectin” (New York University, priority 1994, dated 1998)
pIC50: −log10 of the molar value.

Tests used:
[1] = tested on: fibrin; experiment: Direct binding ELISA on fibrin-coated microtiter plates
Experimental: The preparation of fibrin coated microtiter plates was adapted from a method described by Christman et al., Biochim. Biophys. Acta. […] Microtiter (Immulon) plates were coated with fibrinogen at a concentration of 50-1000 ng/well/0.1 ml of Tris buffered saline (TBS). The plates were dried for 24 hours at 37° C. and 0.1 ml of thrombin (20 NIH units/100 ml) containing TRASYLOL™ (aprotinin) (400 K.I units/100 ml) in TBS was added to each well and the plates incubated for 2 hours at 37° C. Each well is washed one time with PBS and the plates are blocked for 1.5 hours with 1% BSA in TBS to prevent non-specific binding. A constant concentration of fibronectin and the 11 kDa fibrin-binding polypeptide (500 ng/0.1 ml) in 50 mM Tris-HCl, 0.1M NaCl, pH 7.6 (FBB) were incubated separately with fibrin coated microtiter wells (50-1000 ng) for 1 hr at room temperature (23° C.).
The wells were washed three times with FBB containing 0.05% Tween 20 (FBBT) and incubated for 1 hour with 0.05 ml of the a polyclonal anti-fibronectinantiserum (Calbiochem) or the purified IgG fraction of anti-11 kDa rabbit antisera, respectively, at a concentration of 1 μg/ml in FBBT containing 0.1% BSA (FBBT/BSA). Following three washes with FBBT, the wells were incubated with 0.05 ml of alkaline phosphatase labeled goat anti-rabbit IgG (TAGO) at a concentration of 2 μg/ml in FBBT/BSA, for 1 hour. The reaction was developed with 0.05 ml of […] p-nitrophenyl phosphate (Sigma phosphatase substrate tablets) in 10% diethanolamine, pH 9.8 containing 1 mM MgCl2.
2. […] Binding of ^4 F1.^5 F1 to fibrin coated microtiter plates was examined by ELISA as described above. Microtiter wells were coated with fibrin (50-1000 ng) and blocked, as described earlier, and incubated with the module pair ^4 F1.^5 F1 (500 ng/0.1 ml or 1000 ng/0.1 ml in FBB) for 1 hour, at room temperature.
Fibrin-binding activity was also assessed by an ELISA. Fn was reacted with fibrin-coated microtiter plates and bound Fn was determined by incubation with a polyclonal rabbit anti-Fn antiserum followed by alkaline phosphatase-labeled anti-rabbit Ig.

[2] = tested on: fibrin; experiment: Competitive inhibition of 125I-11 kDa binding to fibrin-coated wells; conditions: 125I-11 kDa 90 nM
Experimental: Analysis of the binding data was performed by non linear regression and curve fitting to the one-site competitive binding curves (GraphPad Prism).

For “11 kDa FBP: 11 kDa C-terminal proteolytic (subtilisin) fibrin-binding fragment of human plasma fibronectin, residues 2123-2232 of SEQ ID NO:1”, which “amount bound relative to intact fibronectin on a mole-per-mole basis” value [1] is on record?
Its value is 20 times.

And the “amount giving maximum binding per 550 ng of fibrin” value [1]?
Its value is “approximately 500 ng”.

And the “binding to fibrin-coated wells” value ([1]; ELISA, room temperature, 1 hr)?
Its value is “bound to the fibrin-coated wells in a concentration dependent manner”.

And the “concentration at which maximum inhibition was achieved” value [2]?
Its value is 4 µM.

And the “molar excess at maximum inhibition” value [2]?
The value was 44.4.

What about the pIC50 ([2]; 15 ng fibrin, 1 hour 22° C., read-out: IC50, 125I-11 kDa binding to fibrin decreased by 50%) of the same substance?
Its pIC50 is 6.22.
